From patent US8093043B2, “β-TrCP1, β-TrCP2 and RSK1 or RSK2 inhibitors and methods for sensitizing target cells to apoptosis” (New York University, priority 2008, dated 2012)
Entries after “also recorded” stand apart in the source; their conditions may differ. Non-standard residues stand in square brackets, D forms with d. Residues, ends and D or L forms follow the SMILES beside them. No end group written: not given here. *: point of attachment. pS = N[C@@H](COP(=O)(O)O)C(=O)O; Cbz = O=C(OCc1ccccc1)*

Assays:
[1] = system: BimEL; assay: BimEL accumulation in MEFs after pharmacological RSK inhibition (immunoblot); format: cell-based, mouse; conditions: MEFs, 0, 1 and 5 μM BI-D1870 for 12 hours, immunoblot for Bim
Description: MEFs were treated with 0, 1 and 5 μM BI-D1870 for 12 hours. Cell extracts were then immunoblotted for the Bim and HSP70 (control) proteins.
Western Blotting (IP-Western). Immuno-blotting was conducted essentially as described in Donzelli et al. (2002), supra. Three pieces of the Whatman paper were wetted in Western transfer buffer (48 mM Tris Base, 39 mM Glycine, 0.0375% SDS, and 20% Methanol in ddH2O), excess of buffer was removed and pieces were placed onto the platinum anode (BIO-RAD semi-dry trans-blot SD). The nitrocellulose was wetted in the same buffer and placed onto the Whatman paper. The gel was wetted in the transfer buffer for 5 to 10 seconds and placed onto the nitrocellulose. Three pieces of Whatman paper were wetted and, removing excess of buffer, placed onto the gel. Air bubbles were removed throughout this procedure. The trans-blot cathode was placed onto the stack. The gel was transferred at a constant voltage between 15 to 25V for 30 minutes.

[2] = system: primary thymocytes; assay: Cell death of primary thymocytes from Bim+/+ or Bim−/− mice (propidium iodide flow cytometry); format: cell-based, mouse; conditions: primary thymocytes (T cells) from Bim+/+ or Bim−/− mice, 10 mM BI-D1870, 0-5 days
Description: Cell death was induced by addition of 10 mM BI-D1870 for 0-5 days in primary thymocytes obtained from Bim+/+ or Bim−/− mice. Cell viability was determined by flow cytometric analysis by staining the cells with propidium iodide. Cell debris was excluded from analysis based on its forward and sideward scatter characteristics. The experiment was performed in triplicate using 3 Bim+/+ and 2 Bim−/− mice for each experiment. Data shown are the means±1 SD.
Cells. HeLa (from ATCC) and U2OS (from ATCC) cells were cultured essentially as described in Donzelli et al. (EMBO J., 2002; 21:4875-84). Cells were grown at 37° C. in a 5% CO2 atmosphere in Dulbecco's modified Eagle's medium (Euroclone) supplemented with 10% bovine calf serum (Hyclone) and 2 mM L-glutamine (Euroclone), or in DMEM containing 5% fetal calf serum (FCS, from GIBCO). HEK293 (from ATCC), Bim−/− MEFs and Bax−/−; Bak−/− immortalized mouse embryo fibroblasts (MEFs) (from Dr. Huang at The Walter and Eliza Hall Institute of Medical Research, Australia; see Bouillet et al., Science, 1999, 286:1735-1738; Lindsten et al., Mol. Cell, 2000, 6:1389-1399) were maintained in Dulbecco's modified Eagle's medium (DMEM) containing 10% fetal bovine serum (FBS, from GIBCO). H1650 and HCC827 cells (both from ATCC) were maintained in RPMI-1640 medium (GIBCO) containing 10% FBS. Primary thymocytes were obtained from 6 week Bim+/+ or Bim−/− mice. […]

[3] = system: BimEL; assay: PMA-induced BimEL degradation in HEK293 cells (immunoblot); format: cell-based, human
From the text: siRNA. β-TrCP1/2 siRNA […] (SEQ ID NO:19) (Guardavaccaro et al., In vivo Dev Cell, 2003, 4:799-812; Margottin-Goguet cl al., Dev Cell, 2003; 4:813-26); RSK1 siRNA […] (SEQ ID NO:21) and RSK2 siRNA […] (SEQ ID NO:22) (Anjum et al., Curr Biol., 2005, 15:1762-7; Roux et al., J Biol. Chem., 2007, 282:14056-64). Control oligonucleotide was a dsRNA oligo to LacZ mRNA […] (SEQ ID NO:28). All siRNA oligonucleotides were from Dharmacon Research Inc. (Lafayette, Colo.). Cells were transfected with siRNA duplexes by Oligofectamine (Invitrogen, Carlsbad, Calif.), following manufacturer's instructions. Cells were transfected with the oligos twice (at 24 and 48 hours after plating) using oligofectamine (Invitrogen) for HEK293, HiPerFect (Qiagen) for NSCLC cell lines, or the AMAXA nucleofactor (Amaxa Inc. Gaithersburg, Md.) for CD4+ human T cell blasts at day 5, according to manufacturer's recommendations. 24 or 48 hours after the last transfection, cells were collected and analyzed.
(§1) When βTrCP1/2 is silenced (FIG. 4A) or RSK1/2 is silenced (FIG. 4B), BimEL's degradation (induced with PMA) is inhibited. […] For the experiments shown in FIG. 4A, HEK293 cells were treated with control siRNA (SEQ ID NO:28) or siRNA targeting βTrcp1/2 (SEQ ID NO:19). 48 hours after siRNA treatment cells were treated with PMA or with PMA+MG 132 (last four lanes) for indicated times. Protein extracts were immunoblotted for the indicated proteins.
For the experiments shown in FIG. 4B, HEK293 cells were treated with control siRNA (SEQ ID NO:28) or siRNA targeting RSK 1 (SEQ ID NO:21) and RSK2 (SEQ ID NO:22). 48 hours after siRNA treatment cells were treated with PMA for indicated times. Protein extracts were immunoblotted for the indicated proteins.

[4] = system: BimEL; assay: In vivo phosphorylation of BimEL on Ser93/94/98 (immunoprecipitation, phospho-specific antibody); format: cell-based; conditions: cells serum deprived 24 hours, PMA for 10 minutes
Description: Serines 93, 94 and 98 were also shown to be phosphorylated in vivo following activation of ERK by either serum addition or PMA (FIG. 2C). In this experiment, BimEL from cells treated with PMA as well as from cells released from serum starvation were immunoprecipitated. In the experiments in FIG. 2C, cells were serum deprived (SD) for 24 hours, serum released (SR) for 10 minutes (lane 2) or treated with PMA for 10 minutes (lane 3-5). Whole cell extracts (WCE) were subjected to immunoprecipitation using HA resin (α-HA) followed by immunoblotting for β-TrCP1, and antiHA (for BimEL).

[5] = system: H1650 cells; conditions: EGFR mutant NSCLC; cited from earlier work
[6] = system: βTrCP; assay: βTrCP knockdown efficiency (Cdc25A accumulation, RT-PCR); format: cell-based, human; conditions: HEK293 cells; accumulation of Cdc25A, confirmed by RT-PCR
Description: FIGS. 8A-E represent quantitative analysis of βTrCP1 mRNA in HEK293, HCC827, H1650 cell lines and CD4+ human T cells treated with an siRNA oligo targeting both βTrCP1 and βTrCP2 mRNAs (SEQ ID NO:19). Representative examples showing knockdown efficiency for βTrCP siRNA by RT-PCR analysis with oligo-dT-primed, reverse-transcribed cDNA derived from total RNA that was prepared from the indicated cells transfected with either control or βTrCP siRNAs. Quantitative PCR was conducted using locus-specific primers: forward […] (SEQ ID NO:29) and reverse […] (SEQ ID NO:30) (n=3, ±SD). For HEK293 cells, knockdown efficiency was additionally analyzed by βTrCP1 immunoprecipitation and subsequent immunoblot analysis (D).
as §1

[7] = target: T1, β-TrCP1 (Homo sapiens, UniProt Q9Y297); assay: In vitro peptide binding assay with 35S-labeled in vitro translated β-TrCP1; conditions: autoradiography; Fbxw2 and Fbxw4 as comparison
T1 construct: host or cells: cell-free in vitro transcription/translation in reticulocyte lysate
T1 sequence (Q9Y297 1-605): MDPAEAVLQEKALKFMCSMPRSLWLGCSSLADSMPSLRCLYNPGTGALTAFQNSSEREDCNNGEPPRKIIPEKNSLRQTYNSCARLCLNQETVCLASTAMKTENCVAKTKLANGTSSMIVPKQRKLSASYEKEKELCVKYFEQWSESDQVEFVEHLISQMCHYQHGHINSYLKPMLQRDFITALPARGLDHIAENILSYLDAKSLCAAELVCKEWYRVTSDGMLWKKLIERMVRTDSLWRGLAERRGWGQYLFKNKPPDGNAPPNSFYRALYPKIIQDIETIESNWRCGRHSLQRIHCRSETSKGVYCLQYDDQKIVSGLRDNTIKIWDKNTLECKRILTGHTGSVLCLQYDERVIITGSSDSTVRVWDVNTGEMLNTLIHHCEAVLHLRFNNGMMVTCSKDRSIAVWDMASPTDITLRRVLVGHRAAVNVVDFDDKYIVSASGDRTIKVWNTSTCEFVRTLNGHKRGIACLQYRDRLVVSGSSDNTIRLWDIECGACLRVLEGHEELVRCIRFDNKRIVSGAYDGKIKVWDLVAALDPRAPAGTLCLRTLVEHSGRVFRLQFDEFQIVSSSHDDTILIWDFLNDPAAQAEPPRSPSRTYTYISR
Description: Peptide binding assay. The peptides were coupled to agarose beads using the Aminolink Kit (Pierce, Rockford, Ill.). Coupled BimEL, β-TrCP1/2, RSK1/2, or Cdc25A peptides (10 mg) were incubated with ^35S-methionine-labeled in vitro-translated β-TrCP1/2, FBXW2 or FBXW4, using the TNT-coupled reticulocyte lysate system (Promega, Madison, Wis.) in the presence of 5 μCi of ^35S-labeled methionine (Amersham Biosciences, Piscataway, N.Y.). Agarose beads were washed with RIPA buffer and binding was assayed by SDS-PAGE followed by autoradiography.
In this experiment in vitro binding assays were performed using in, vitro translated β-TrCP1 and a purified BimEL peptide composed of 13 amino-acids containing the degron motif. The in vitro binding assays were performed between ^35S-labeled in vitro transcribed/translated β-Trcp1, Fbxw2 and Fbxw4 and beads-coupled BimEL peptide ^88[…]^100 (SEQ ID NO:24) or BimEL phosphopeptide ^88CLSRSpSpSGYFpSFD^100 (SEQ ID NO:25). Bound proteins were eluted and subjected to electrophoresis and autoradiography.

[8] = siRNAs targeting RSK1 and RSK2 used together, PMA 48 hours after siRNA

For `CC(C)CCN1c2nc(Nc3cc(F)c(O)c(F)c3)ncc2N(C)C(=O)C1C` (stereo not shown) [BI-D1870], the BimEL accumulation [1] was “induced BimEL accumulation; also recorded: induces an accumulation of BimEL” and the “Bim-dependent cell death / cell viability” value [2] was “from wild-type mice, but not from Bim^−/− mice, died; also recorded: induces Bim-dependent cell death”.

In the case of `CC(C)C[C@@H](C=O)NC(=O)[C@H](CC(C)C)NC(=O)[C@H](CC(C)C)NC(=O)OCc1ccccc1` [MG132] (Cbz-Leu-Leu-Leu-aldehyde), the “effect on PMA-induced BimEL degradation” value ([3]; PMA+MG 132) is reported as “Inhibition of BimEL's degradation”.

In the case of `CCCCCCCCCCCCCC(=O)O[C@@H]1[C@@H](C)[C@@]2(O)[C@@H](C=C(CO)C[C@]3(O)C(=O)C(C)=C[C@@H]23)[C@@H]2C(C)(C)[C@]12OC(C)=O` [PMA], the “phosphorylation of BimEL on Ser93/94/98” value [4] is reported as “rapidly induced”.

For `COc1cc2ncnc(Nc3ccc(F)c(Cl)c3)c2cc1OCCCN1CCOCC1` [gefitinib], the sensitivity to gefitinib [5] is given as “not”.

In the case of “AGCGCUGAGAAUGGACAGCAA (listed as RNA, chemistry not given here; listed as Homo sapiens) [SEQ ID NO:22, siRNA for human RSK2]”, the “effect on PMA-induced BimEL degradation” value [3, 8] is reported as “counteracted the effect of PMA on BimEL degradation, stabilizing BimEL”.

In the case of “CCCAACAUCAUCACUCUGAAA (listed as RNA, chemistry not given here; listed as Homo sapiens) [SEQ ID NO:21, siRNA for human RSK1]”, the “effect on PMA-induced BimEL degradation” value [3, 8] is reported as “counteracted the effect of PMA on BimEL degradation, stabilizing BimEL”.

In the case of GUGGAAUUUGUGGAACAUC [SEQ ID NO:19], the “effect on PMA-induced BimEL degradation” value ([3]; siRNA targeting βTrcp1/2, PMA 48 hours after siRNA) is reported as “counteracted the effect of PMA on BimEL degradation, stabilizing BimEL” and the βTrCP knockdown [6] is reported as “efficient βTrCP knockdown”.

For “^88CLSRSpSpSGYFpSFD^100 (CLSRS[pS][pS]GYF[pS]FD; listed as Homo sapiens) [SEQ ID NO:25, BimEL phosphopeptide of 13 amino acids containing the degron motif]”, the “binding of βTrCP1 to beads-coupled BimEL peptide” value [7] was “binds specifically”.
